Assay [1] in a line: DRUGMATRIX: Atrial Natriuretic Factor (ANF) radioligand binding (ligand: [125I] ANF (rat)). The class given is cell membranes, Cavia porcellus, Dunkin-Hartley, Adrenal gland, Membrane. Conditions: Not Active = under 50% inhibition at 10 µM.
Assay [2] concerns the target T1, Alpha-2A adrenergic receptor (Homo sapiens, UniProt P08913). Further: in other assays of this panel Not Active means under 50% inhibition at 10 µM.
T1 sequence (P08913 whole entry): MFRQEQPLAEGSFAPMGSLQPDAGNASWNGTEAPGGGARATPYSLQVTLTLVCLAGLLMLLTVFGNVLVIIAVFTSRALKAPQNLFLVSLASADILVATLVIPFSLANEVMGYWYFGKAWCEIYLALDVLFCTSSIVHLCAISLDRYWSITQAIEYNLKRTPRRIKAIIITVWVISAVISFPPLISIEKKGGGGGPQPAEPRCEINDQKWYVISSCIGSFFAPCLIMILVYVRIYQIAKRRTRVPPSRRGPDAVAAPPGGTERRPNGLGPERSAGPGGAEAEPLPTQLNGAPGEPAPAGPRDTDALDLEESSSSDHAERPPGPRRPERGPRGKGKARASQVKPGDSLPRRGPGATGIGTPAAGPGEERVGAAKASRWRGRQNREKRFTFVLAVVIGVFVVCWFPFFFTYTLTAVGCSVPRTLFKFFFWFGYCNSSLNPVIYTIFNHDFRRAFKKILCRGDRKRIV
It is filed as cell membranes, Sf9, Membrane. Conditions: for IC50: sf9.

Assay [3] is described as follows: DRUGMATRIX: Phorbol Ester radioligand binding (ligand: [3H] PDBu). The class given is cell membranes, Mus musculus, ICR, Brain, Membrane. The settings on record: Not Active = under 50% inhibition at 10 µM.
Assay [4] has as its target T2, Nitric oxide synthase, inducible (Mus musculus, UniProt P29477).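 Further: inhibition of iNOS enzyme activity measured with L-arginine as substrate; in other assays of this panel Not Active means under 50% inhibition at 10 µM.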
T2 sequence (P29477 whole entry): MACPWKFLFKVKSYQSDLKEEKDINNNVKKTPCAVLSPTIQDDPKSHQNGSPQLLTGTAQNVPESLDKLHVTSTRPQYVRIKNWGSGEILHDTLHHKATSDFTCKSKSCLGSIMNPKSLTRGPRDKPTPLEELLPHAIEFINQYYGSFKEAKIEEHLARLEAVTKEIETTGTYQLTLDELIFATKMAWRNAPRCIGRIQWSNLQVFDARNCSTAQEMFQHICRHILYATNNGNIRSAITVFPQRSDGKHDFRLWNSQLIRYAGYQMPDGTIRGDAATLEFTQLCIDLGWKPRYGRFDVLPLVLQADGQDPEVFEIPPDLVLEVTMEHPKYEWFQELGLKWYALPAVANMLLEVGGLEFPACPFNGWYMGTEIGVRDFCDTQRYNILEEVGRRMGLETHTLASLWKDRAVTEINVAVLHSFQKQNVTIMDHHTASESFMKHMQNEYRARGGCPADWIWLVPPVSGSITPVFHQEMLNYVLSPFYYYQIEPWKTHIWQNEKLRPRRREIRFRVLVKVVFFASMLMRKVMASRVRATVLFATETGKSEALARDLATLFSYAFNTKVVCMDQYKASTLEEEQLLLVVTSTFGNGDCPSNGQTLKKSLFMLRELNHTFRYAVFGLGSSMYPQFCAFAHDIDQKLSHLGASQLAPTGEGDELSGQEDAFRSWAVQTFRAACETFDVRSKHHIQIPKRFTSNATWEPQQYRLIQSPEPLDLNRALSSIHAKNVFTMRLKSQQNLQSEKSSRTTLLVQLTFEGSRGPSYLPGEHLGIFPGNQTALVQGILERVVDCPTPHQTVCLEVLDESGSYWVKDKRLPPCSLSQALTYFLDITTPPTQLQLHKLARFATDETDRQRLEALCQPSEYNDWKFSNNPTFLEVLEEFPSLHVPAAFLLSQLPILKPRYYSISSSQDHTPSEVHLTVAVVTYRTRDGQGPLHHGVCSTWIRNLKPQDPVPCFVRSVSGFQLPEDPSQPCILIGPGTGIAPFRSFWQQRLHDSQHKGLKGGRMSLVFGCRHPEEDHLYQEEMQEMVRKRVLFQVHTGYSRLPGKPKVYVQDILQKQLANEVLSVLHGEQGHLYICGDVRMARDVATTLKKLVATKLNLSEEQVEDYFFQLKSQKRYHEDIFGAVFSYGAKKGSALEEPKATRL
Set-up: species or system Escherichia coli.

Assay [5] addresses Vasopressin V1a receptor (Homo sapiens, UniProt P37288). It is filed as cell membranes, Membrane. The settings on record: hek293.
Assay [6] addresses Vascular endothelial growth factor receptor 1 (Homo sapiens, UniProt P17948). The class given is cell-based. Conditions: huvec.
Assay [7] in a line: DRUGMATRIX: Glutamate, Kainate radioligand binding (ligand: [3H] Kainic acid). Conditions: Not Active = under 50% inhibition at 10 µM. It is filed as cell membranes, Rattus norvegicus, Wistar, Brain, Membrane.
Assay [8] concerns the target T3, Type-2 angiotensin II receptor (Homo sapiens, UniProt P50052). Further: in other assays of this panel Not Active means under 50% inhibition at 10 µM.
T3 sequence (P50052 whole entry): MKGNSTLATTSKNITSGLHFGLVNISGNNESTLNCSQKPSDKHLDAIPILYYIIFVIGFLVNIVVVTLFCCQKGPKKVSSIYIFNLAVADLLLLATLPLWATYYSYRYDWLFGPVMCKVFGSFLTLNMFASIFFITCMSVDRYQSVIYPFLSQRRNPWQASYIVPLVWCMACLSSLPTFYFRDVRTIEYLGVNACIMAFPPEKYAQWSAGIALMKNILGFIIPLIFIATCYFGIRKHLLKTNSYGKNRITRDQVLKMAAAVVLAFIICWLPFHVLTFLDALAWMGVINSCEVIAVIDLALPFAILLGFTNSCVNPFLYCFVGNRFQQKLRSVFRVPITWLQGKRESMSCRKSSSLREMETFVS
The assay can be described thus: biochemical. The class given is cell-based, CHO-K1. Conditions: cho-k1.

The values below come from ChEMBL document CHEMBL1909046, “DrugMatrix in vitro pharmacology data”.

pIC50, pKi: −log10 of the molar value.

Sequence of Vascular endothelial growth factor receptor 1 (P17948 whole entry): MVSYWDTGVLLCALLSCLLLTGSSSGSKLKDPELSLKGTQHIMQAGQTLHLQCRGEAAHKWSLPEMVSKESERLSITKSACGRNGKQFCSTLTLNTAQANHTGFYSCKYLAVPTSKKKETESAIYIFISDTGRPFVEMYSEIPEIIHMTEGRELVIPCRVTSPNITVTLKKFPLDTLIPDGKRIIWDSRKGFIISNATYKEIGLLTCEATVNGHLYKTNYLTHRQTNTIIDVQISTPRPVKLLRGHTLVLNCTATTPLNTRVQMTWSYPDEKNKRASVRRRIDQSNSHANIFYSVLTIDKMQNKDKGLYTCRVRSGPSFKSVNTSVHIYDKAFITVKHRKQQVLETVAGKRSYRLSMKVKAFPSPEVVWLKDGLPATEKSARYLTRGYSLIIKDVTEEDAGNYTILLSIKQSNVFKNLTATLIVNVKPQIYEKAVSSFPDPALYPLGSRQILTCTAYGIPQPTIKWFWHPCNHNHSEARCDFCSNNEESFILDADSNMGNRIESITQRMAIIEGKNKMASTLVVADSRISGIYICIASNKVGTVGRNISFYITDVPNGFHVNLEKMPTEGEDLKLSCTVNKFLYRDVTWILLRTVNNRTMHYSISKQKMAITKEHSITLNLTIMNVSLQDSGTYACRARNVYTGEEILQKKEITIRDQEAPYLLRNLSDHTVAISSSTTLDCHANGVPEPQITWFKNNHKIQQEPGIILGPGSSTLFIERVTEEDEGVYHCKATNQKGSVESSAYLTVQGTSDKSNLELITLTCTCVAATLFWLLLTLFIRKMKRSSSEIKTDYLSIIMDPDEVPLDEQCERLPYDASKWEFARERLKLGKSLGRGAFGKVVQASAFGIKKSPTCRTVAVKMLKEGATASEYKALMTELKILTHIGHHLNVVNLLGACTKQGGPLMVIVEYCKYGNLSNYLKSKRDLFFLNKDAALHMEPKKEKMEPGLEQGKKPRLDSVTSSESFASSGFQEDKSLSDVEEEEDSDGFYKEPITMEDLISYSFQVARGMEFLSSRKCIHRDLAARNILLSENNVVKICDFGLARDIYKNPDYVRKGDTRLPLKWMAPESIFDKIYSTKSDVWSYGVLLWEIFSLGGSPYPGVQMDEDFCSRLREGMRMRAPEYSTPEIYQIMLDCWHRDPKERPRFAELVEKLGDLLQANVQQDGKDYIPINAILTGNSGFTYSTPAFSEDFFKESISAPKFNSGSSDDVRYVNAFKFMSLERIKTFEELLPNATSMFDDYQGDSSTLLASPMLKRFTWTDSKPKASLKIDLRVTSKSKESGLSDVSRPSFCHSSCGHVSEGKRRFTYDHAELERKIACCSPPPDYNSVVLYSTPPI
Sequence of Vasopressin V1a receptor (P37288 whole entry): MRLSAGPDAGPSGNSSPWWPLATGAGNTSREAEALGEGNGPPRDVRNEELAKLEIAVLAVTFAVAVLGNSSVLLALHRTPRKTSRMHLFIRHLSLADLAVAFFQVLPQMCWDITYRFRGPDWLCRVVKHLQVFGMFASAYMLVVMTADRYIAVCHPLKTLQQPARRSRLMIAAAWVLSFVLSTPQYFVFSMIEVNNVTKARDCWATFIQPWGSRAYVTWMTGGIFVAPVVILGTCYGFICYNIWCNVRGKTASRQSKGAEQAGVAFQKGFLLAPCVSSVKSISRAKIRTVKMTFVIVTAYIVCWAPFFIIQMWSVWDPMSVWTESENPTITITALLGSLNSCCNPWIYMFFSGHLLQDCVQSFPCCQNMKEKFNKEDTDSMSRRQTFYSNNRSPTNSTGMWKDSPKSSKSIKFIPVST

In the case of `COc1ccc2c(c1OC)C(=O)O[C@@H]2[C@H]1c2c(cc3c(c2OC)OCO3)CCN1C` [NOSCAPINE], the IC50 result in assay [1], in assay [2], in assay [3], in assay [4], in assay [5] and in assay [6] was “Not Active” throughout. For the same compound, the IC50 result in assay [7] and in assay [8] was “Not Active” in each case. Also, the Ki entry in assay [1], in assay [3] and in assay [7] was “Not Active” throughout.

For `C[C@@H]1O[C@@H](O[C@H]2C[C@@H](O)[C@]3(CO)[C@H]4[C@H](O)C[C@]5(C)[C@@H](C6=CC(=O)OC6)CC[C@]5(O)[C@@H]4CC[C@]3(O)C2)[C@H](O)[C@H](O)[C@H]1O` [OUABAIN], the IC50 entry in assay [1], in assay [2], in assay [3], in assay [4], in assay [5] and in assay [6] was “Not Active” each time. In addition, the IC50 result in assay [7] and in assay [8] was “Not Active” each time. For the same compound, the Ki result in assay [1], in assay [3] and in assay [7] was “Not Active” in each case.

For `NC(=O)N1c2ccccc2CC(=O)c2ccccc21` [OXCARBAZEPINE], the IC50 result in assay [1], in assay [2], in assay [3], in assay [4], in assay [5] and in assay [6] was “Not Active” each time. The IC50 result in assay [7] and in assay [8] was “Not Active” throughout. Moreover, the Ki result in assay [1], in assay [3] and in assay [7] was “Not Active” each time.

Take `COc1ccnc(C[S+]([O-])c2nc3ccc(OC(F)F)cc3[nH]2)c1OC` (centres undefined) [PANTOPRAZOLE]: the IC50 result in assay [1], in assay [2], in assay [3], in assay [4], in assay [5] and in assay [6] was “Not Active” in each case. The IC50 entry in assay [7] and in assay [8] was “Not Active” each time. Further, the Ki result in assay [1], in assay [3] and in assay [7] was “Not Active” in each case.

On to `N=C(N)c1ccc(OCCCCCOc2ccc(C(=N)N)cc2)cc1` [PENTAMIDINE], for which the IC50 entry in assay [1], in assay [3], in assay [4], in assay [5], in assay [6] and in assay [7] was “Not Active” each time. Further, the IC50 entry in assay [8] is given as “Not Active”. Further, the Ki result in assay [1], in assay [3] and in assay [7] was “Not Active” in each case. For the same compound, the pIC50 in assay [2] (read-out: IC50) was 5.86. Also, the pKi in assay [2] (read-out: Ki) is 6.29.

With `NNCCc1ccccc1` [PHENELZINE], the IC50 entry in assay [1], in assay [2], in assay [3], in assay [4], in assay [5] and in assay [6] was “Not Active” each time. The IC50 result in assay [7] and in assay [8] was “Not Active” each time. Also, the Ki entry in assay [1], in assay [3] and in assay [7] was “Not Active” in each case.

In the case of `CCc1ccc(CCOc2ccc(CC3SC(=O)NC3=O)cc2)nc1` (centres undefined) [PIOGLITAZONE], the IC50 entry in assay [1], in assay [2], in assay [3], in assay [4], in assay [5] and in assay [6] was “Not Active” each time. Further, the IC50 result in assay [7] and in assay [8] was “Not Active” each time. In addition, the Ki result in assay [1], in assay [3] and in assay [7] was “Not Active” throughout.

As for `CCCNC(C)C(=O)Nc1ccccc1C` (centres undefined) [PRILOCAINE], the IC50 entry in assay [1], in assay [2], in assay [3], in assay [4], in assay [5] and in assay [6] was “Not Active” in each case. Moreover, the IC50 entry in assay [7] and in assay [8] was “Not Active” each time. For the same compound, the Ki entry in assay [1], in assay [3] and in assay [7] was “Not Active” in each case.
